{"source": "patent US20230348447A1", "about": "“OXAZOLIDINONE COMPOUNDS, LIPOSOME COMPOSITIONS COMPRISING OXAZOLIDINONE COMPOUNDS AND METHOD OF USE THEREOF” (priority 2020, published 2023)", "key": {"M.tb Erdman": {"system": "M.tb Erdman", "assay": "Broth microdilution MIC with Alamar blue endpoint (MABA) / OD600", "type": "cell-based, Mycobacterium tuberculosis", "conditions": "Mycobacterium tuberculosis"}, "M. Tuberculosis Erdman [1]": {"system": "M. Tuberculosis Erdman", "conditions": "eight weeks, Balb/c and C3HeB/FeJ mice; cited from earlier work"}, "M.tb H37Rv": {"system": "M.tb H37Rv", "assay": "Broth microdilution MIC with Alamar blue endpoint (MABA) / OD600", "type": "cell-based, Mycobacterium tuberculosis", "conditions": "Mycobacterium tuberculosis, H37RV"}, "[2]": {"assay": "Liposome loading / encapsulation efficiency (General protocol)", "conditions": "HSPC, 5 mol% PEG-lipid, 40-65 mol% Chol; DL0 250 (AKG-28) or 500 (AKG-38)"}, "M. Tuberculosis Erdman [3]": {"system": "M. Tuberculosis Erdman", "assay": "Efficacy of monotherapy in chronic Balb/c model of tuberculosis (lung and spleen CFU)", "type": "in vivo, Mycobacterium tuberculosis (in Balb/c mice)"}, "[4]": {"conditions": "male, Sprague-Dawley, rat, in vivo, po, 50 mg/kg"}, "[5]": {"conditions": "male, Sprague-Dawley, rat, in vivo, 50 mg/kg, 8 weeks", "protocol": "The control group was injected once weekly for 8 weeks with an equal volume of HEPES buffered saline (HBS, pH 7). Before the endpoint of the study animals were humanely euthanized by exsanguination from the abdominal aorta following isoflurane anesthesia. Blood and tissue samples were collected for evaluation of clinical pathology parameters. Representative samples of tissues were collected and preserved in 10% neutral buffered, embedded in paraffin, sectioned, mounted on glass slides, stained with hematoxylin and eosin, and evaluated for histopathology by a board-certified veterinary pathologist.\nThe following parameters and end points were also evaluated: mortality and moribundity check, clinical observations, body weights, food consumption, nerve conduction velocity (NCV) and muscle action potential (MAP), functional observation battery (FOB)."}, "in vivo": {"assay": "in vivo", "conditions": "male, Sprague-Dawley, rat"}, "[6]": {"conditions": "Balb/c mice, 50 mg/kg, q1x5, oral gavage"}, "[7]": {"conditions": "Balb/c mice, 100 mg/kg, q1x5, oral gavage"}}, "note": "Like-named read-outs stand apart in the source and are kept apart here."}
{"compound": "CC(=O)NC[C@H]1CN(c2ccc(N3CCOCC3)c(F)c2)C(=O)O1", "note": "[Linezolid]", "values": [{"measurement": "MIC", "setting": "M.tb Erdman; ERDMAN, read-out: Mycobacterium tuberculosis MIC, Erdman", "result": 1, "unit": "µg/mL"}, {"measurement": "MIC", "setting": "M.tb Erdman; M. tuberculosis Erdman / H37Rv, strains not separated, read-out: MIC", "result": 2, "unit": "µg/mL"}, {"measurement": "log10 CFU counts, monotherapy (Lanoix et al. 2015)", "setting": "M. Tuberculosis Erdman [1]", "result": "4-6 log10 CFU"}, {"measurement": "MIC", "setting": "M.tb H37Rv; as determined in Example 2, read-out: MIC (H37Rv)", "result": 1, "unit": "µg/mL"}, {"measurement": "MIC", "setting": "M.tb H37Rv; read-out: Mycobacterium tuberculosis MIC, H37Rv", "result": 1, "unit": "µg/mL"}, {"measurement": "EE", "setting": "[2]", "result": "less than 5%"}, {"measurement": "Lung Log CFU, 4 week", "setting": "M. Tuberculosis Erdman [3]; [6]", "result": "4.61 ± 0.31", "unit": "Log CFU"}, {"measurement": "Spleen Log CFU, 4 week", "setting": "M. Tuberculosis Erdman [3]; [6]", "result": "4.32 ± 0.28", "unit": "Log CFU"}, {"measurement": "Lung Log CFU, 2 week", "setting": "M. Tuberculosis Erdman [3]; [7]", "result": "5.58 ± 0.10", "unit": "Log CFU"}, {"measurement": "Lung Log CFU, 4 week", "setting": "M. Tuberculosis Erdman [3]; [7]", "result": "4.17 ± 0.21", "unit": "Log CFU"}, {"measurement": "Lung Log CFU, 8 week", "setting": "M. Tuberculosis Erdman [3]; [7]", "result": "2.45 ± 0.37", "unit": "Log CFU"}, {"measurement": "Spleen Log CFU, 2 week", "setting": "M. Tuberculosis Erdman [3]; [7]", "result": "4.53 ± 0.25", "unit": "Log CFU"}, {"measurement": "Spleen Log CFU, 4 week", "setting": "M. Tuberculosis Erdman [3]; [7]", "result": "3.90 ± 0.28", "unit": "Log CFU"}, {"measurement": "log10 CFU in lungs", "setting": "M. Tuberculosis Erdman [3]; eight weeks, linezolid 100 mg/kg, detection limit 1.13", "result": 2.45, "unit": "log10 CFU"}, {"measurement": "Log10 CFU reduction, lungs", "setting": "M. Tuberculosis Erdman [3]; two weeks, Ls-AKG28 50 mg/kg twice weekly or 100 mg/kg once weekly, linezolid 100 mg/kg (q1x5)", "result": "less than 0.15 Log10 CFU"}, {"measurement": "AUC0-inf", "setting": "[4]", "result": 373.53, "unit": "µg·h/mL"}, {"measurement": "Clearance", "setting": "[4]", "result": 2.231, "unit": "mL/min/kg"}, {"measurement": "T ½", "setting": "[4]", "result": 11.86, "unit": "h"}, {"measurement": "Vd", "setting": "[4]", "result": "2,291.26 mL/kg"}, {"measurement": "Kidney: Vacuolation, mesangial cell, glomerular, Minimal (animals)", "setting": "[5]", "result": 0}, {"measurement": "Kidney: Vacuolation, mesangial cell, glomerular, number of animals with the finding", "setting": "[5]", "result": "(0)"}, {"measurement": "Liver: Degeneration, hepatocellular, centrilobular, Mild (animals)", "setting": "[5]", "result": 0}, {"measurement": "Liver: Degeneration, hepatocellular, centrilobular, Minimal (animals)", "setting": "[5]", "result": 0}, {"measurement": "Liver: Degeneration, hepatocellular, centrilobular, number of animals with the finding", "setting": "[5]", "result": "(0)"}, {"measurement": "Liver: Single cell necrosis, centrilobular, Minimal (animals)", "setting": "[5]", "result": 2}, {"measurement": "Liver: Single cell necrosis, centrilobular, number of animals with the finding", "setting": "[5]", "result": "(2)"}, {"measurement": "Spleen: Accumulation, basophilic material, Mild (animals)", "setting": "[5]", "result": 0}, {"measurement": "Spleen: Accumulation, basophilic material, Minimal (animals)", "setting": "[5]", "result": 0}, {"measurement": "Spleen: Accumulation, basophilic material, number of animals with the finding", "setting": "[5]", "result": "(0)"}, {"measurement": "Spleen: Vacuolation, macrophages, Mild (animals)", "setting": "[5]", "result": 0}, {"measurement": "Spleen: Vacuolation, macrophages, Minimal (animals)", "setting": "[5]", "result": 0}, {"measurement": "Spleen: Vacuolation, macrophages, Moderate (animals)", "setting": "[5]", "result": 0}, {"measurement": "Spleen: Vacuolation, macrophages, number of animals with the finding", "setting": "[5]", "result": "(0)"}, {"measurement": "Vd", "setting": "in vivo", "result": 2.29, "unit": "L/kg"}, {"measurement": "AUC", "setting": "in vivo; po, 50 mg/kg", "result": 282, "unit": "µg·h/mL"}, {"measurement": "AUC0-inf", "setting": "in vivo; po, 50 mg/kg", "result": 374, "unit": "µg·h/mL"}, {"measurement": "AUC(0-t)", "setting": "in vivo; po, 50 mg/kg", "result": 282, "unit": "µg·h/mL"}, {"measurement": "Cmax", "setting": "in vivo; po, 50 mg/kg", "result": 26700, "unit": "ng/mL"}, {"measurement": "Tmax", "setting": "in vivo; po, 50 mg/kg", "result": 1, "unit": "h"}, {"measurement": "half-life", "setting": "in vivo; po, 50 mg/kg", "result": 11.9, "unit": "h"}]}
